Experimental data reported in ChEMBL document CHEMBL1909046, “DrugMatrix in vitro pharmacology data”.

Columns and labels:
[1] = DRUGMATRIX: Tumor Necrosis Factor (TNF), Non-Selective radioligand binding (ligand: [125I] TNF-alpha); type: cell membranes, Membrane; conditions: u-937; Not Active = under 50% inhibition at 10 µM
Vasopressin V1a receptor = Vasopressin V1a receptor (Homo sapiens, UniProt P37288); type: cell membranes, Membrane; conditions: hek293; also: in other assays of this panel Not Active means under 50% inhibition at 10 µM
Vasopressin V1a receptor, sequence (P37288 whole entry): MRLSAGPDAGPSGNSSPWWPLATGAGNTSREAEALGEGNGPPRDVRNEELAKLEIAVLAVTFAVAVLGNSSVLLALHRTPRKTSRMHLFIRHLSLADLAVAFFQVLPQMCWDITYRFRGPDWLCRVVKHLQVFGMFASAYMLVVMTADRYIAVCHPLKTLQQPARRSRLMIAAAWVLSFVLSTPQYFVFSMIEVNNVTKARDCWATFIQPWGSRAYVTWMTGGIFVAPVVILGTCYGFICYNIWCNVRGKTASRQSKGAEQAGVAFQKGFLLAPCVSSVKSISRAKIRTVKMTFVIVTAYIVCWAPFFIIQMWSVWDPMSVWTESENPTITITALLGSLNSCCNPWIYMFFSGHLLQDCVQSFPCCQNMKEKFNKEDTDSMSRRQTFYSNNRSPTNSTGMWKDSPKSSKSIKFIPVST

[2] = DRUGMATRIX: Calcium Channel Type L, Phenylalkylamine radioligand binding (ligand: [3H] (-)-Desmethoxyverapamil (D-888)); type: cell membranes, Rattus norvegicus, Wistar, Brain, Membrane; conditions: Not Active = under 50% inhibition at 10 µM
Insulin receptor = Insulin receptor (Rattus norvegicus, UniProt P15127); type: cell membranes, Wistar, Liver, Membrane; also: in other assays of this panel Not Active means under 50% inhibition at 10 µM
Insulin receptor, sequence (P15127 27-759 limits assumed): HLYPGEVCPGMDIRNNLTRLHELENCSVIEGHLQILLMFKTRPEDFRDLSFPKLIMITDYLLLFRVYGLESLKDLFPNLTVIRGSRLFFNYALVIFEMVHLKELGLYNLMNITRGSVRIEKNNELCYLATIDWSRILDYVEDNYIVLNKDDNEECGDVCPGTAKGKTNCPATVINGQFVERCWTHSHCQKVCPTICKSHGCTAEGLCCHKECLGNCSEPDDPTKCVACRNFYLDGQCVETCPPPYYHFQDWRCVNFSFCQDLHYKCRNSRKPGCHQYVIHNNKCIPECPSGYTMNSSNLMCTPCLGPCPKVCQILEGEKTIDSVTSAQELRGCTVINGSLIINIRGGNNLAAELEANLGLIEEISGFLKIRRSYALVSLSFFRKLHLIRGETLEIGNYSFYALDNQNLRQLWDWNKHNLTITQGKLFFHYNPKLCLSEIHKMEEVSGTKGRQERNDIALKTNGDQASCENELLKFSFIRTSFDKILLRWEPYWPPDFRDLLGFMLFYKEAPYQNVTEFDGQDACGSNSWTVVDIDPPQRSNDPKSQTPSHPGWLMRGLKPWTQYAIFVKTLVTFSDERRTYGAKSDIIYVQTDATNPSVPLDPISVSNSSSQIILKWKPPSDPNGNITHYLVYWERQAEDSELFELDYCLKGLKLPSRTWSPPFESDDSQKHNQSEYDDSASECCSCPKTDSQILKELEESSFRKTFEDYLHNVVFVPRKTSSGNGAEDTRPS
Insulin receptor, sequence (P15127 764-1383 limits assumed): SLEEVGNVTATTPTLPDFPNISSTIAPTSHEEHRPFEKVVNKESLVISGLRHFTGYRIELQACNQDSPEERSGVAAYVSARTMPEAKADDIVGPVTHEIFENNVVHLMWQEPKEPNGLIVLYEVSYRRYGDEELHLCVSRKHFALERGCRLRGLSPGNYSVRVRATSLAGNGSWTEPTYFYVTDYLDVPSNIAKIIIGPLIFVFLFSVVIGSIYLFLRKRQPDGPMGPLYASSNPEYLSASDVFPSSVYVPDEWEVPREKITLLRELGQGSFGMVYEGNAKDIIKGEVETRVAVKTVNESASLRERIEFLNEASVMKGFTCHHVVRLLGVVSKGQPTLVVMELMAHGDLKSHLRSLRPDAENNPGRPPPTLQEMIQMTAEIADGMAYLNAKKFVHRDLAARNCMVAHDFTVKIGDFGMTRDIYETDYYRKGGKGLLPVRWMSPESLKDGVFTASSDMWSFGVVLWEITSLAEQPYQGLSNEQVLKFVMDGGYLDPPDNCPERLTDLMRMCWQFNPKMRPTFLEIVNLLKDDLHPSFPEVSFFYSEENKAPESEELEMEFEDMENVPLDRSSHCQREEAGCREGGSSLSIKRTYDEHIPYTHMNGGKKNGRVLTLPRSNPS

Melanocortin receptor 5 = Melanocortin receptor 5 (Homo sapiens, UniProt P33032); type: cell membranes, HEK293, Membrane; conditions: hek293; also: in other assays of this panel Not Active means under 50% inhibition at 10 µM
Melanocortin receptor 5, sequence (P33032 whole entry): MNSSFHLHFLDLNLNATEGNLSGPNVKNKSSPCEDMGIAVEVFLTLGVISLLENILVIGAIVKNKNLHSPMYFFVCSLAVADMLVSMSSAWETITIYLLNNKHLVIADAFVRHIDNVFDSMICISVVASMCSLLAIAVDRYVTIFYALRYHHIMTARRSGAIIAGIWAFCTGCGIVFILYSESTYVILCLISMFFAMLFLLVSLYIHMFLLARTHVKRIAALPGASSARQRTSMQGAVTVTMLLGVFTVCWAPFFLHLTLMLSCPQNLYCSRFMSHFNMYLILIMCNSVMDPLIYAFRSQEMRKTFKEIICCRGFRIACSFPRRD

[3] = target: T1, Amine oxidase [flavin-containing] A (Homo sapiens, UniProt P21397); experiment: DRUGMATRIX: Monoamine Oxidase MAO-A enzyme inhibition (substrate: Kynuramine); parameters: species or system BTI-TN-5B1-4; conditions: bti-tn-5b1-4; Not Active = under 50% inhibition at 10 µM
T1 sequence (P21397 whole entry): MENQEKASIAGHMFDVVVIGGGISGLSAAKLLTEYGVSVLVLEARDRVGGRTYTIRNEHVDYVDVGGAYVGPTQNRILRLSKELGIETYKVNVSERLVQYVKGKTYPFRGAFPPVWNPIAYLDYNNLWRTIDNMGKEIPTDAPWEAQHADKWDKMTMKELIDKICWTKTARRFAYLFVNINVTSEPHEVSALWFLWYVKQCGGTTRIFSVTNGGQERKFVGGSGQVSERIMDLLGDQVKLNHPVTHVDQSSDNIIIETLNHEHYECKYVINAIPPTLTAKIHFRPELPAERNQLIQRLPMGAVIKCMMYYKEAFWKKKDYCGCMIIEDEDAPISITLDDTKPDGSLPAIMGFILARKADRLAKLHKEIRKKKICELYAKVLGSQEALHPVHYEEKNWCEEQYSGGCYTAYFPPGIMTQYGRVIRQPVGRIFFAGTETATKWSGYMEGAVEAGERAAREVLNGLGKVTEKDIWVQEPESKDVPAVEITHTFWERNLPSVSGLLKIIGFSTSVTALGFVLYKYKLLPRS

| SMILES | IC50 [1] | Ki [1] | IC50 (Vasopressin V1a receptor) | IC50 [2] | Ki [2] | IC50 (Insulin receptor) | IC50 (Melanocortin receptor 5) | IC50 [3] | IC50 ([2]; read-out: IC50) | Ki ([2]; read-out: Ki) |
| --- | --- | --- | --- | --- | --- | --- | --- | --- | --- | --- |
| CC(C(=O)O)c1ccc2oc(-c3ccc(Cl)cc3)nc2c1 (stereo unspecified) [BENOXAPROFEN] | Not Active | Not Active | Not Active | Not Active | Not Active | Not Active | Not Active | Not Active |  |  |
| COc1ccc2cc3[n+](cc2c1OC)CCc1cc2c(cc1-3)OCO2.[Cl-] [BERBERINE CHLORIDE] | Not Active | Not Active | Not Active | Not Active | Not Active | Not Active | Not Active | Not Active |  |  |
| O=C(O)CCNC(=O)c1ccccc1 [BETAMIPRON] | Not Active | Not Active | Not Active | Not Active | Not Active | Not Active | Not Active | Not Active |  |  |
| CC(=O)Oc1ccc(C(c2ccc(OC(C)=O)cc2)c2ccccn2)cc1 [BISACODYL] | Not Active | Not Active | Not Active | Not Active | Not Active | Not Active | Not Active | Not Active |  |  |
| Cc1cc2c(OCC(CNC(C)(C)C)OC(=O)c3ccccc3)cccc2[nH]1 (stereo unspecified) [BOPINDOLOL] | Not Active | Not Active | Not Active |  |  | Not Active | Not Active | Not Active | 2900 nM | 2820 nM |
| Brc1c(NC2=NCCN2)ccc2nccnc12 [BRIMONIDINE] | Not Active | Not Active | Not Active | Not Active | Not Active | Not Active | Not Active | Not Active |  |  |
| CN(C)[C@@H]1C(O)=C(C(N)=O)C(=O)[C@@]2(O)C(O)=C3C(=O)c4c(O)ccc(Cl)c4[C@@](C)(O)[C@H]3C[C@@H]12 [CHLORTETRACYCLINE] | Not Active | Not Active | Not Active | Not Active | Not Active | Not Active | Not Active | Not Active |  |  |
| CN/C(=N\CCSCc1nc[nH]c1C)NC#N [CIMETIDINE] | Not Active | Not Active | Not Active | Not Active | Not Active | Not Active | Not Active | Not Active |  |  |
| COc1cc(N)c(Cl)cc1C(=O)NC1CCN(CCCOc2ccc(F)cc2)CC1OC (stereo unspecified) [CISAPRIDE] | Not Active | Not Active | Not Active |  |  | Not Active | Not Active | Not Active | 530 nM | 515 nM |
| CCC(=O)O[C@]1(C(=O)CCl)[C@@H](C)C[C@H]2[C@@H]3CCC4=CC(=O)C=C[C@]4(C)[C@@]3(F)[C@@H](O)C[C@@]21C [CLOBETASOL PROPIONATE] | Not Active | Not Active | Not Active | Not Active | Not Active | Not Active | Not Active | Not Active |  |  |
| O=C1CN=C(c2ccccc2Cl)c2cc([N+](=O)[O-])ccc2N1 [CLONAZEPAM] | Not Active | Not Active | Not Active | Not Active | Not Active | Not Active | Not Active | Not Active |  |  |
| Nc1ccn([C@@H]2O[C@H](CO)[C@@H](O)[C@@H]2O)c(=O)n1 [CYTARABINE] | Not Active | Not Active | Not Active | Not Active | Not Active | Not Active | Not Active | Not Active |  |  |
| C[C@@H]1C[C@H]2[C@@H]3CCC4=CC(=O)C=C[C@]4(C)[C@@]3(F)[C@@H](O)C[C@]2(C)[C@H]1C(=O)CO [DESOXIMETASONE] | Not Active | Not Active | Not Active | Not Active | Not Active | Not Active | Not Active | Not Active |  |  |
| C#C[C@]1(OC(C)=O)CC[C@H]2[C@@H]3CCC4=C[C@@H](OC(C)=O)CC[C@@H]4[C@H]3CC[C@@]21C [ETHYNODIOL DIACETATE] | Not Active | Not Active | Not Active | Not Active | Not Active | Not Active | Not Active |  |  |  |
